Test results published in patent US10251841B2, “Polymeric depots for localization of agent to biological sites” (TRUSTEES OF BOSTON UNIVERSITY, priority 2011, dated 2019).

Legend:
Test in all cases: Cell proliferation assay, MTT, 5 days
Conditions in all cases: media containing 10% FBS
[1] = system: Calu6 (human lung cancer); type: cell-based
Method: (§1) Melanoma B16 (murine), Calu 6 (human lung carcinoma), A549 (human lung carcinoma), LLC (murine Lewis Lung Carcinoma), NCI-H460 (human lung), MSTO-211H (human mesothelioma), MSTO-211H-Luc (luciferase transfected human mesothelioma), MCF7 (human breast), LMS05 (human sarcoma) were incubated (37° C., 5% CO2) with MEM (with 10% fetal bovine serum (FBS), 1% essential amino acids, and 1% Penicillin/Streptomyocin with L glutamine (Pen/Strep), F-12 HAM (with 10% FBS and 1% Pen/Strep), DMEM (with 10% FBS and 1% Pen/Strep) media, or DMEM (with 10% FBS and 1% GPS), with media changes once every three days. When not cultured, all cell lines were stored in RPMI freezing media at −80° C. (with 50% FBS, 40% RPMI and 10% dimethyl sulfoxide (DMSO)). Cell lines were trypsinized from the plates and seeded into 96 well plates at a concentration of 3000 cells per well. All cell lines were cultured for a period of at least seven days before being tested in cell uptake or proliferation assays etc.
(§2) Cell proliferation assays testing the effects of paclitaxel encapsulated within nanoparticles were performed using three tumor cell lines. Lewis Lung Carcinoma (LLC), Melanoma, and Calu6 (human lung cancer) cell lines were plated at 3,000 cells/well and when established, cultured in media with/without paclitaxel. […] At the end of 5 days, tumor cell proliferation was assessed via MTT analysis. […]

Melanoma = type: cell-based, murine
Method: as §1, §2

[2] = system: Lewis Lung Carcinoma (LLC); type: cell-based, murine
Method: as §1, §2

Measured: concentration that reliably inhibits growth

CC(=O)O[C@H]1C(=O)[C@@]2(C)[C@H]([C@H](OC(=O)c3ccccc3)[C@]3(O)C[C@H](OC(=O)[C@H](O)[C@@H](NC(=O)c4ccccc4)c4ccccc4)C(C)=C1C3(C)C)[C@]1(OC(C)=O)CO[C@@H]1C[C@@H]2O [paclitaxel]
1 to 10 ng/mL: [1] | Melanoma | [2]
